Values quoted from earlier work, collected in patent US20040192587A9, “Zinc formulations as a prophylactic treatment for the common cold” (priority 2002, published 2004).

What was measured:
rhinovirus common colds = settings: large prophylactic oral doses, as much as 2 grams per day
common cold = settings: tablet with about 23 mg elemental zinc dissolved in the mouth every two hours during 12 to 16 waking hours; sixty-five humans; untreated group 10.8 days

| Compound | frequency of acquisition of rhinovirus common colds or amount of virus shedding (rhinovirus common colds) | duration of colds (common cold) [days] |
| --- | --- | --- |
| O=C1O[C@H]([C@@H](O)CO)C(O)=C1O [vitamin C] | have not altered | – |
| zinc gluconate | – | 3.9 |
